Source: article PMC3995681, “Structural, Kinetic and Proteomic Characterization of Acetyl Phosphate-Dependent Bacterial Protein Acetylation” (PLoS ONE, 2014)

What was measured:
[1] = molecular target: T1, GapA (glyceraldehyde-3-phosphate dehydrogenase) (Escherichia coli, UniProt P0A9B2); assay: X-ray crystallography; conditions: NAD+-binding site, part of the molecules in the asymmetric unit
T1 construct: full ORF, N-terminal His6 tag plus TDPALRA spacer (ASKA clone, pCA24N), expressed in E. coli BL21(DE3); tetramer
T1 sequence (P0A9B2 whole entry): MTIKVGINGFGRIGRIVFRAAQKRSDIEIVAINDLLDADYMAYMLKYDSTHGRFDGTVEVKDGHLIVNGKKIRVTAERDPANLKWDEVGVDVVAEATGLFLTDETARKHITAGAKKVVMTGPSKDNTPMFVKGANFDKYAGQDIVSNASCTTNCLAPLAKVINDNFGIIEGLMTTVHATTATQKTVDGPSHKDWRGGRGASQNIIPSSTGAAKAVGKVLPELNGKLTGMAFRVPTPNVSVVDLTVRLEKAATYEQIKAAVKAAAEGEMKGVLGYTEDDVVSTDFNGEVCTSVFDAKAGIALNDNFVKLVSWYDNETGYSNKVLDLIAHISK

[2] = molecular target: T1, GapA (glyceraldehyde-3-phosphate dehydrogenase); assay: X-ray crystallography, crystal soak ( […] sec); format: binding; conditions: covalent; acetylation of K46, K249, K257, K116; pH 7.5
[3] = molecular target: T2, LpdA (dihydrolipoyl dehydrogenase) (Escherichia coli, UniProt P0A9P0); assay: in vitro acetylation, anti-acetyllysine Western blot and MS1 Filtering; format: biochemical; conditions: covalent; non-enzymatic lysine acetylation, non-saturating; 5-20 mM acP, 10 mM MgCl2, pH 7.3, 37°C
T2 construct: full ORF, N-terminal His6 tag plus TDPALRA spacer (ASKA clone, pCA24N), expressed in E. coli BL21(DE3)
T2 sequence (P0A9P0 whole entry): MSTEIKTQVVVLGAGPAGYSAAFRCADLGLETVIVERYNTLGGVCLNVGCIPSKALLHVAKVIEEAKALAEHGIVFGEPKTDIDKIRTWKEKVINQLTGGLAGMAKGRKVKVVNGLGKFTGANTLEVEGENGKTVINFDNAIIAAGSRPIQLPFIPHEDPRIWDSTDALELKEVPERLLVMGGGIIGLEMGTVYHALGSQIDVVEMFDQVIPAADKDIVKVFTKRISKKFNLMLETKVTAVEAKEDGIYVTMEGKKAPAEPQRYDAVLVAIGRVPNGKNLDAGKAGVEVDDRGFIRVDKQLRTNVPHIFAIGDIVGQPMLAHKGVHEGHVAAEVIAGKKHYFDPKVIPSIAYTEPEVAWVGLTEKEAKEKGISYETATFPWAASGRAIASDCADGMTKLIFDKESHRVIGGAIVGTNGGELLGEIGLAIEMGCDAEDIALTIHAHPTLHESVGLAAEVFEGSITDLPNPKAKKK

[4] = molecular target: T3, TpiA (triosephosphate isomerase) (Escherichia coli, UniProt P0A858); assay: X-ray crystallography, crystal soak ( […] sec); format: binding; conditions: pH 6.5; active site near K11; non-covalent (K11 not acetylated)
T3 construct: full ORF, N-terminal His6 tag plus TDPALRA spacer (ASKA clone, pCA24N), expressed in E. coli BL21(DE3)
T3 sequence (P0A858 whole entry): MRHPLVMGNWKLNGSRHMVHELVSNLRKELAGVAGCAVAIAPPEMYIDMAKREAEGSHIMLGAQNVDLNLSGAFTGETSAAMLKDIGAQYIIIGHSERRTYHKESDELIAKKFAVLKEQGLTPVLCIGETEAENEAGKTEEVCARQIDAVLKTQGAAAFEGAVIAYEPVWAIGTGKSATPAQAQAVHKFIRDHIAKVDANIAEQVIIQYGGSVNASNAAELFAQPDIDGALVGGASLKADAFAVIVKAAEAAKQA

RNAP sigma70 holoenzyme = molecular target: T4, RNAP sigma70 holoenzyme (Escherichia coli, UniProt P00579+P0A7Z4+P0A8V2); assay: in vitro acetylation, anti-acetyllysine Western blot and MS1 Filtering; format: biochemical; conditions: covalent; acetylation of RpoA K297, RpoB K1065, RpoD K493 and K593; 10 mM acP, 30 min, 10 mM MgCl2
T4 construct: gene rpoA; with DNA-directed RNA polymerase subunit beta'; DNA-directed RNA polymerase subunit omega
T4 sequence (P0A7Z4 whole entry): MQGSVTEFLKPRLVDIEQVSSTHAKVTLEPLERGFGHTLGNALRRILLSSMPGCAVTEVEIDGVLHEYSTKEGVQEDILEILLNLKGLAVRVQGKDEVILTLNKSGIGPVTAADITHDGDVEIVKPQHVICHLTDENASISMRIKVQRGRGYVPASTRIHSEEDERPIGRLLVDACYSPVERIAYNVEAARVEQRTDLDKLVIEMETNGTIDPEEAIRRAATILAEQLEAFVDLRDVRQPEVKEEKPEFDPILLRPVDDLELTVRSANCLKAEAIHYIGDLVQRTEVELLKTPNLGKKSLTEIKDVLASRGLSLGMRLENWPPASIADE
T4 sequence (P0A8V2 whole entry): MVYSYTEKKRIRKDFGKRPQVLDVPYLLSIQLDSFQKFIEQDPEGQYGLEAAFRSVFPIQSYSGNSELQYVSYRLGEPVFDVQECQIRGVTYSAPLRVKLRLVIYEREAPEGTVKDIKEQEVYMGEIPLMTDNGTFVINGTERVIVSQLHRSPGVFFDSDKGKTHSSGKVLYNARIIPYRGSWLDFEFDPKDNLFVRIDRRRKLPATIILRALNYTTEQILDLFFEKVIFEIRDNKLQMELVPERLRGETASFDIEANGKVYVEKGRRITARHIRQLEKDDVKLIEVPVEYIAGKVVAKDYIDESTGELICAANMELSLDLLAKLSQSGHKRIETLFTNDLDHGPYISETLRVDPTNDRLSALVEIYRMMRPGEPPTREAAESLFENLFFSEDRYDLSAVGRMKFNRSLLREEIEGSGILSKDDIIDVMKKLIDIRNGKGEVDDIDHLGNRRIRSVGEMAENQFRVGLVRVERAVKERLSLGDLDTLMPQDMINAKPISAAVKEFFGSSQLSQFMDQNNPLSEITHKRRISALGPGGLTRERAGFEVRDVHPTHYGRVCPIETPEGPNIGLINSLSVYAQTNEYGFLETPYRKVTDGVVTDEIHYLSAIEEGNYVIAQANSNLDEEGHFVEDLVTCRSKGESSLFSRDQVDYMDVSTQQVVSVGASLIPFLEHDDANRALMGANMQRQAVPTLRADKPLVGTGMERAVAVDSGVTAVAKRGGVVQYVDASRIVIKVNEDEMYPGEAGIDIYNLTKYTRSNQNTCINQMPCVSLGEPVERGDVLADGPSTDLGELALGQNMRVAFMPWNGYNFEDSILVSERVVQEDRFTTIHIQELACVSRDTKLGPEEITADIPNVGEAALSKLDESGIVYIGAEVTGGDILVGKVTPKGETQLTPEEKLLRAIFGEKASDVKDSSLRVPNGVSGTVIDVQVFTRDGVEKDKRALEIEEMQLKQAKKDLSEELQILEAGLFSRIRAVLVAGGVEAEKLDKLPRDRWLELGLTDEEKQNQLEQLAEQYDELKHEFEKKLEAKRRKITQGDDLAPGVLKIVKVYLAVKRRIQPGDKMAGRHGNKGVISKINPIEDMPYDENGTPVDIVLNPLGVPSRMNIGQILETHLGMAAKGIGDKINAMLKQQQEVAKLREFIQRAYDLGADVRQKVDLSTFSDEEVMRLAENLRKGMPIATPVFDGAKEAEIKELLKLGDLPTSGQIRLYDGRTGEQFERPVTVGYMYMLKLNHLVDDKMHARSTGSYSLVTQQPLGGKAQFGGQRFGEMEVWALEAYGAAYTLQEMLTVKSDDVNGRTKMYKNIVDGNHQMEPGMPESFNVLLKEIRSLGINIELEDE
T4 sequence (P00579 whole entry): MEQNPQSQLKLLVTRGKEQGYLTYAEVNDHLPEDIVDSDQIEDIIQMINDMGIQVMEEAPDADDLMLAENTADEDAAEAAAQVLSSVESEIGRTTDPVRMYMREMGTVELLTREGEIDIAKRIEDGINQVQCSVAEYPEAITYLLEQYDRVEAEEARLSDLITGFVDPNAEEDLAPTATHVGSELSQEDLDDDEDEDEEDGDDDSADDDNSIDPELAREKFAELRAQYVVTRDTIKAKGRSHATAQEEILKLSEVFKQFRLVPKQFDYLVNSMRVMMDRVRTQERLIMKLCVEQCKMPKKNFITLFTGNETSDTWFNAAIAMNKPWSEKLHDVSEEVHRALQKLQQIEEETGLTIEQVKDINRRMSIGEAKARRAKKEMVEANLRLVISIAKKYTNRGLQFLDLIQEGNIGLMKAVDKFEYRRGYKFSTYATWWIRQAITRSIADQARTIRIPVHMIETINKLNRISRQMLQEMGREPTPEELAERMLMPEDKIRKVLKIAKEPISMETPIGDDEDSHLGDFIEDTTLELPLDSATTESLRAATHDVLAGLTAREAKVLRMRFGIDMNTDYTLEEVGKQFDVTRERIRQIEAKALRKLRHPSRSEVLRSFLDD
T4 sequence (P0A8T7 whole entry partner): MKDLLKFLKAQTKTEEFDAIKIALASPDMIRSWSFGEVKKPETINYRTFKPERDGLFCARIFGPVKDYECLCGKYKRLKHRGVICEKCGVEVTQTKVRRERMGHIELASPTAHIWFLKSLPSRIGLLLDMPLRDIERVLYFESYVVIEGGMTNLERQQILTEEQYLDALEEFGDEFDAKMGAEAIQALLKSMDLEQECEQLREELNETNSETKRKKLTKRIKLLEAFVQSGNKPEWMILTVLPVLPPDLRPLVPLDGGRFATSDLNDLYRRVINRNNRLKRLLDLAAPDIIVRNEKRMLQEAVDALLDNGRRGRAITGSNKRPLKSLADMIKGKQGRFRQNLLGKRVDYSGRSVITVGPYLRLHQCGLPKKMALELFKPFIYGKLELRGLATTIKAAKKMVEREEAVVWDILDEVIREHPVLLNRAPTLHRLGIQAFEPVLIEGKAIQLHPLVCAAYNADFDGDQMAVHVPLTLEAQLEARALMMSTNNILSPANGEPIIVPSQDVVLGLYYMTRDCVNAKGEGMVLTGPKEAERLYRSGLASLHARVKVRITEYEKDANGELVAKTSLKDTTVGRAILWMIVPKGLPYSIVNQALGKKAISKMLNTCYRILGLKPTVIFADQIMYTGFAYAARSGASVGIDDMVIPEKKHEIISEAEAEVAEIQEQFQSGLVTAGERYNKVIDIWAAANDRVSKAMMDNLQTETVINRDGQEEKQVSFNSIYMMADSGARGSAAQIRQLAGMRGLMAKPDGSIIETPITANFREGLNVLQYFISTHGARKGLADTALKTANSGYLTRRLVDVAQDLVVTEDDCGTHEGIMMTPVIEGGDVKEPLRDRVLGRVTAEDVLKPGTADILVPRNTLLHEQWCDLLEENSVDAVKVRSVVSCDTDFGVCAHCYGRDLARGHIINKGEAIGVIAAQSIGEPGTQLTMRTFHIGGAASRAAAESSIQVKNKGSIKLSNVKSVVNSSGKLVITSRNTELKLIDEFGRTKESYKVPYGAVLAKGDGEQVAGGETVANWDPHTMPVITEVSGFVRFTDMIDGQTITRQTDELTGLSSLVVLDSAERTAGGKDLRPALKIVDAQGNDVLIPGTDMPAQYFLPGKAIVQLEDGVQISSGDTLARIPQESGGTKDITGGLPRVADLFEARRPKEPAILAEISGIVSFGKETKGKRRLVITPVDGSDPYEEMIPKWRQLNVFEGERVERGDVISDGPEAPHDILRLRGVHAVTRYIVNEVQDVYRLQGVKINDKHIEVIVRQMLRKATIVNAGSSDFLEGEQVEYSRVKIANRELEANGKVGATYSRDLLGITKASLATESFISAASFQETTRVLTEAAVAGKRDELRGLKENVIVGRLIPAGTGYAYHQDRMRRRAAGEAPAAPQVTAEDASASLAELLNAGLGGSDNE
T4 sequence (P0A800 2-91 partner): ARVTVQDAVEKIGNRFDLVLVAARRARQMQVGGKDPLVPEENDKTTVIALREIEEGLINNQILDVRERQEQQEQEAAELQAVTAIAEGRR

In the case of `NC(=O)c1ccc[n+]([C@@H]2O[C@H](COP(=O)(O)OP(=O)(O)OC[C@H]3O[C@@H](n4cnc5c(N)ncnc54)[C@H](O)[C@@H]3O)[C@@H](O)[C@H]2O)c1` [NAD^+], the X-ray crystallography [1] is reported as “had either NAD^+ or pyrophosphate bound in the NAD^+-binding site”.

With `CC(=O)OP(=O)(O)O` [acP] the “X-ray crystallography, crystal soak (<30 sec)” value [2] was “acP-dependent acetylation had already occurred on four residues (i.e., K46, K249, K257, and K116)”, the “in vitro acetylation, anti-acetyllysine Western blot and MS1 Filtering” value [3] was “when incubated with acP, purified LpdA became acetylated in a dose- and time-dependent manner” and the “X-ray crystallography, crystal soak (<30 sec)” value [4] was “The structures showed that acP bound near K11, where the substrate DHAP is seen to bind”. For the same compound, the “in vitro acetylation, anti-acetyllysine Western blot and MS1 Filtering” value (RNAP sigma70 holoenzyme) was “significant relative increases in acetylation were observed for K297 of RpoA, for K1065 of RpoB”.

With `O=P(O)(O)OP(=O)(O)O` [pyrophosphate] the X-ray crystallography ([1]; source of ligand not told) was “had either NAD^+ or pyrophosphate bound in the NAD^+-binding site”.
